# Measurements reported in patent US20020049139A1, “Herbicidal compositions containing DMSO” (priority 1997, published 2002).
# What was measured:
# ferns = assay: Phytotoxicity of DMSO sprays on ferns; assay type: in vivo
# Procedure: (§1) Phytotoxicity of DMSO sprays was evaluated on hosta, ferns and azaleas. In each instance, groups of 6 plants were sprayed with 1%, 2%, 5% or 10% aqueous DMSO.
# azaleas = assay: Phytotoxicity of DMSO sprays on azaleas; assay type: in vivo, azalea
# Procedure: as §1
# hosta = assay: Phytotoxicity of DMSO sprays on hosta; assay type: in vivo
# Procedure: as §1
# cacao seedling = conditions: aqueous solutions containing 40% or greater amounts of DMSO; cited from earlier work
# sickle pod [1] = assay: Greenhouse control of sickle pod by glyphosate with/without DMSO; assay type: in vivo
# sickle pod [2] = assay: as above; assay type: in vivo; remark: listed apart in the source
# Procedure: Glyphosate (N-(phosphonomethyl) glycine), the active agent (41%) in Composition B and other similar non-selective herbicidal products for control of many annual and perennial grasses, broadleaf weeds, woody shrubs and trees was evaluated in greenhouse studies. The LD50 range for glyphosate in the commercial concentrate Composition B on sickle pod grown in the greenhouse was established at 0.06%, and […].
# Data showing effectiveness for control of sickle pod at concentration 0.06% and 0.3% in carrier with 3% DMSO are shown below. The testing procedure used 12 sickle pod 3 inches high selected for uniformity in each treatment. The rating of injury to each plant was based on visual rating of herbicidal activity with +=10%, ++=25%, +++=50%, ++++−75% and dead plants=[…].
SMILES,Effects (ferns; ferns sprayed with 2% aqueous DMSO),Effects (ferns; ferns sprayed with 5% aqueous DMSO),Effects (ferns; ferns sprayed with 10% aqueous DMSO),Effects (azaleas; azalea sprayed with 2% aqueous DMSO),Effects (azaleas; azalea sprayed with 5% aqueous DMSO),Effects (azaleas; azalea sprayed with 10% aqueous DMSO),Effects (hosta; hosta sprayed with 2% aqueous DMSO),Effects (hosta; hosta sprayed with 5% aqueous DMSO),Effects (hosta; hosta sprayed with 10% aqueous DMSO),effect on cacao seedling (cacao seedling),"% control of sickle pod (sickle pod [1]; 0.03% glyphosate with 3% DMSO, 12 days) [%]","sickle pod control with 3% DMSO versus without DMSO (sickle pod [1]; glyphosate at 0.06% and 0.03%, 3% DMSO present)","% control of sickle pod (sickle pod [2]; 0.03% glyphosate only, 12 days) [%]","% control of sickle pod (sickle pod [2]; 0.06% glyphosate only, 12 days) [%]","% control of sickle pod (sickle pod [2]; 0.06% glyphosate only, 20 days) [%]","% control of sickle pod (sickle pod [2]; 0.06% glyphosate only, 30 days) [%]","% control of sickle pod (sickle pod [2]; 0.06% glyphosate with 3% DMSO, 12 days) [%]","% control of sickle pod (sickle pod [2]; 0.06% glyphosate, 3% DMSO, 20 days) [%]","control of sickle pod over a 30 day interval with 3% DMSO versus glyphosate only (sickle pod [2]; 0.06% glyphosate, 3% DMSO, 30 day interval)","% control of sickle pod (sickle pod [2]; 0.06% glyphosate, 3% DMSO, 30 days) [%]"
"C[S+](C)[O-] [DMSO, Dimethylsulfoxide]",non-toxic,burn on fron tips,burn on fron tips,non-toxic,non-toxic,non-toxic,non-toxic,non-toxic,Margina burn,marginal necroses,–,–,–,–,–,–,–,–,–,–
"O=C(O)CNCP(=O)(O)O [glyphosate, N-(phosphonomethyl) glycine]",–,–,–,–,–,–,–,–,–,–,85,significant improvement,54,51,43,85,90,85,improved early and sustained control,96
